Experimental data published in patent US20260365698A1, “STAPLED PEPTIDES FOR SENSITIZATION OF CANCER TO TREATMENT” (Purdue Research Foundation, priority 2022, published 2026).
“Also recorded” adds a separate entry of the source. Bridge positions count the residues as written; N and C are the ends. Square brackets hold non-standard residues; d marks the D form. Peptide text beside a SMILES is read from it. S5 = C=CCCC[C@](C)(N)C(=O)O

How the values were obtained:
proteinase K = test: Proteinase K peptide stability assay; details: 55 μM peptide, 10 μg/mL proteinase K; some significant degradation
Protocol: Data are from three independent replicates with standard error indicated. Scale bar indicates 50 μm.
Peptide stability assays were performed using the protocols described in Cromm et al., Protease-resistant and cell-permeable double-stapled peptides targeting the Rab8a GTPase, ACS Chemical Biology 11(8): 2375-2382 (2016). Briefly, 55 μM of peptide was incubated with 10 μg/mL proteinase K for the indicated timepoints. At the end of each time point, 50 μL of the reaction mixture were quenched in 100 μL of a 1:1 mixture acetonitrile/water+1% formic acid (FA). Samples were injected and analyzed on a Triple quad. Analysis was done using an Agilent Technologies 1200 Series attached to an Agilent Technologies 6460 Triple Quad LC/MS. Analysis was performed with a ZORBAX XDB-C18 […], 2.1×50 mm column (Agilent Technologies, Inc., Santa Clara, CA). Eluent A: H2O with 0.1% FA. Eluent B: MeCN with 0.1% FA. Purity analysis utilized the gradient as follows: (A:B, 0.3 mL/min): 95:5, 0 minutes; 95:5, 1 minute; 5:95, 5 minutes; 5:95, 8 minutes: 95:5, 8.5 minutes; 95:5, 12.5 minutes.

Nrf2 = test: Dual luciferase assay, NQO1-ARE firefly / TK-Renilla reporter; format: cell-based; details: HEK-293T cells; for inhibition of Nrf2 activity: 16 hours, 50 μM in FIG. 4A
Protocol: The results are averages from three replicates.
(§1) The peptides from Example 1 were screened for Nrf2 inhibition using a previously developed dual luciferase assay. Ren et al., Brusatol enhances the efficacy of chemotherapy by inhibiting the Nrf2-mediated defense mechanism, Biological Sciences 108(4): 1433-1438 (2011). Briefly, HEK-293T cells stably expressing ARE-firefly luciferase and TK-Renilla luciferase were used. The cells were treated with different concentrations of compounds N1 (SEQ ID NO: 3), N1 S (SEQ ID NO: 6), N2 (SEQ ID NO: 4), N2S (SEQ ID NO: 7), N3 (SEQ ID NO: 5), and N3S (SEQ ID NO: 8) for 16 hours. The cells were lysed in 1× passive lysis buffer, and both firefly luciferase and Renilla luciferase activities were measured using the Promega Dual-Luciferase™ Reporter (DLR™) Assay System and a luminometer (Turner Biosystems 20/20^n Luminometer). The samples were in triplicate for all concentrations of compounds (n=3).

HEK-293T cells = test: Toxicity to the cells in the luciferase assay; format: cell-based; details: 16 hours, listed as NIS
Protocol: as §1

A549 cells = test: Confocal microscopy of FITC-labeled peptides, cell permeability; format: cell-based
Protocol: To determine whether this was a result of poor cell permeability by compounds N2S and N3S, fluorophore labeled versions of these peptides were generated, and confocal microscopy was used to determine the abilities of these peptides to enter cells (FIG. 5C).
Briefly, A549 cells at 9.5×10^4 cells/ml in 600 μl media were plated on 10 mm glass-bottomed, 24-well plates (Chemglass Life Sciences Cell Culture Plate, 24-Well, Fisher Scientific, Waltham, MA) and cultured for overnight at 37 °C, 5% CO2, in complete growth medium (RPMI supplemented with 10% fetal calf serum, L-glutamine, and non-essential amino acids). The next day, cells were treated with fresh, pre-warmed complete growth medium supplemented with the desired FITC-labeled peptide or DMSO vehicle control at a final concentration of 100 μM FITC labeled peptide and 1% DMSO. After 90 minutes of treatment, cells were washed three times in warm PBS to remove excess peptide from the cell surface and left in modified Krebs-Ringer buffer solution [KRBH: 134 mM NaCl. 3.5 mM KCl. 1.2 mM KH2PO4, 0.5 mM MgSO4, 1.5 mM CaCl2), 5 mM NaHCO3, 10 mM HEPES (pH 7.4)] containing Hoechst stain at 1 μg/ml. Cells were immediately analyzed under a Nikon A1 confocal microscope (Resonant). The images were taken at 20× magnification with fluorescence excitation wavelengths at 409 for the Hoechst and 488 for the FITC. Images were processed using NIS-Elements AR. Dietrich et al., Cell permeable stapled peptide inhibitor of Wnt signaling that targets 0-catenin protein-protein interactions, Cell Chemical Biology 24(8): 958-968.e5 (2017); Dougherty et al., Enhancing the cell-permeability of stapled peptides with a cyclic cell-penetrating peptide, J Medicinal Chemistry 62(22): 10098 (2019).

[1] = target: T1, Nrf2-MafG-DNA ARE complex (Homo sapiens, UniProt O15525); test: Fluorescence polarization assay with Nrf2, MafG and FAM-labeled ARE; format: biochemical; details: 200 nM His-MBP-NRF2, 200 nM His-MafG, 20 nM FAM-labeled ARE; 'as low as'
T1 construct: listing gives 93-aa segments
Protocol: Briefly, a 96-well plate (VWR® Solid Bottom Assay Plates, 96-well, black) was used to encapsulate each fluorescence polarization reaction. Unless otherwise stated (i.e., ARE only, ARE+MafG), each 100-μL reaction contained 200 nM purified recombinant His-MBP-NRF2, 200 nM purified recombinant His-MafG, various concentrations of molecule, and 20 nM 5′ FAM-labeled ARE all together in 1× PBS solution.
First, NRF2 was incubated with molecule for 5 minutes with shaking, followed by the addition of MafG for another 5-minute incubation. Finally, ARE was added, and the MafG-NRF2-ARE system was incubated for 10 minutes with shaking. After incubation, the plate was placed into a plate reader (Molecular Devices SpectraMax® iD5 Multi-Mode Microplate Reader). The fluorescence polarization measurement was performed at excitation/emission values of 470:525 nm, respectively. The samples were in triplicate (n=3).

MafG = target: T2, MafG (Homo sapiens, UniProt O15525); test: Immunoprecipitation (biotinylated pull-down) assay; format: binding; details: 20-fold unlabeled N1S
T2 construct: made in house; host or cells: E. coli Rosetta (DE3), vector pET15B, Ni-NTA purified
Protocol: To show direct interaction between compound NIS and MafG, an immunoprecipitation assay was carried out with His-tagged, purified MafG and biotin-labeled compound NTS peptide. Briefly, a Pierce™ Biotinylated Protein Interaction Pull-Down Kit was purchased from Thermo Fisher, and manufacturer's instructions were followed. Purified His-tagged MafG and biotin-tagged NIS were used as […] proteins. For competition experiments, 20× unlabeled NIS was added after 1 hour incubation with MafG.

[2] = tested on: glutathione (GSH) in A549 cells; test: GSH-Glo glutathione quantification; format: cell-based; details: 24 hours
Protocol: Data are from three independent experiments with standard deviation. ****p<0.0001, one-way ANOVA.
The manufacturer's instructions were followed. Cells were plated at a density of 20,000 cells/ml and treated with various concentrations of NIS for 24 hours.

T2 sequence (O15525 whole entry): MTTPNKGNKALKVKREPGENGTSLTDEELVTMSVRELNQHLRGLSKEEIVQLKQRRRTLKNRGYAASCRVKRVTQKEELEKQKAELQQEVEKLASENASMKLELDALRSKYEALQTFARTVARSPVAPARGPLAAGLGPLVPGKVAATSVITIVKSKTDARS
T1 sequence (O15525 whole entry, one chain of several): as the sequence (O15525 whole entry) above

## CC[C@H](C)[C@H](NC(C)=O)C(=O)N[C@H](C(=O)N[C@@H](CCC(=O)O)C(=O)N[C@@H](CC(C)C)C(=O)N[C@@H](CCC(=O)O)C(=O)N[C@@]1(C)CCCC=CCCC[C@@](C)(C(=O)N[C@@H](CC(C)C)C(=O)N[C@@H](CCCCN)C(=O)N[C@@H](CC(=O)O)C(=O)N[C@@H](CCC(=O)O)C(=O)N[C@@H](CCCCN)C(=O)N[C@@H](CCC(=O)O)C(N)=O)NC(=O)[C@H](CC(=O)O)NC(=O)[C@H](CC(C)C)NC(=O)[C@H](CC(=O)O)NC1=O)C(C)C [N1S] (Ac-IVELE[S5]DLD[S5]LKDEKE-NH2; staple 6-10)
Proteinase K
  time at which significant degradation starts: 24 h
Nrf2
  inhibition of Nrf2 activity: inhibit Nrf2
Nrf2; listed as NIS
  inhibition of Nrf2 activity: most potent inhibition of Nrf2 activity
Nrf2; FIG. 4B
  dose response for Nrf2 inhibition: showed a dose-response curve for Nrf2 inhibition
HEK-293T cells
  toxicity to the cells: no toxicity; also recorded: without showing toxicity
A549 cells; FITC-labeled peptide, 100 μM, 90 minutes, A549 cells
  cellular and nuclear permeability: good
A549 cells; summary statement
  entry into cells: can enter cells
[1]
  lowest concentration decreasing binding of the heterodimer to the DNA: 0.2 µM
MafG
  competition of N1S-biotin/MafG interaction by unlabeled peptide: could be competed away
[2]
  glutathione (GSH) levels: Significant reductions
